Patent US8563553B2, “Compounds and compositions as protein kinase inhibitors” (Novartis AG, priority 2009, dated 2013)

biological target: b-Raf(V600E) (Homo sapiens (Human), UniProt P15056, V600E); assay: Raf/Mek Amplified Luminescence Proximity Homogeneous Assay (Alpha Screen); assay type: biochemical; settings: b-Raf(V600E) approximately 4 pM; biotinylated Mek, kinase dead approximately 10 nM; ATP 10 μM; pre-incubation 60 minutes; reaction 3 hours at room temperature; read-out: mut-B-RAF IC50
Procedure: Raf/Mek Amplified Luminescence Proximity Homogeneous Assay
Assay buffer: 50 mM Tris, pH 7.5, 15 mM MgCl2, 0.01% Bovine Serum Albumin (BSA), 1 mM dithiothreitol (DTT) Stop buffer: 60 mM ethylenediaminetetraacetic acid (EDTA), 0.01% Tween® 20 Bead buffer: 50 mM Tris, pH 7.5, 0.01% Tween® 20 […]
biotinylated Mek, kinase dead
Alpha Screen detection kit (available from PerkinElmer™, #6760617R)
Anti phospho-MEK1/2 (available from Cell Signaling Technology, Inc. #9121) 384 well assay plates (White Greiner® plates, #781207) […]
biotinylated Mek, Kinase dead approximately 10 nM
Pre-incubation time with compounds 60 minutes at room temperature
Reaction time 1 or 3 hours at room temperature
Raf and biotinylated Mek, kinase dead, were combined at 2× final concentrations in assay buffer (50 mM Tris, pH 7.5, 15 mM MgCl2, 0.01% BSA and 1 mM DTT) and dispensed 10 μl per well in assay plates (Greiner white 384 well assay plates #781207) containing 0.5 μl of 40× of a raf kinase inhibitor test compound diluted in 100% DMSO. The plate was incubated for 60 minutes at room temperature.
The Raf kinase activity reaction was started by the addition of 10 μL per well of 2×ATP diluted in assay buffer. […] Phosphorylated product was measured using a rabbit anti-p-MEK (Cell Signaling, #9121) antibody and the Alpha Screen IgG (ProteinA) detection Kit (PerkinElmer #6760617R), by the addition of 30 μL to the well of a mixture of the antibody (1:2000 dilution) and detection beads (1:2000 dilution of both beads) in bead buffer (50 mM Tris, pH 7.5, 0.01% Tween20). The additions were carried out under dark conditions to protect the detection beads from light. A lid was placed on top of the plate and incubated for 1 hour at room temperature, then the luminescence was read on a PerkinElmer Envision instrument. The concentration of each compound for 50% inhibition (IC50) was calculated by non-linear regression using XL Fit data analysis software.

Sequence of b-Raf(V600E) (P15056 whole entry V600E): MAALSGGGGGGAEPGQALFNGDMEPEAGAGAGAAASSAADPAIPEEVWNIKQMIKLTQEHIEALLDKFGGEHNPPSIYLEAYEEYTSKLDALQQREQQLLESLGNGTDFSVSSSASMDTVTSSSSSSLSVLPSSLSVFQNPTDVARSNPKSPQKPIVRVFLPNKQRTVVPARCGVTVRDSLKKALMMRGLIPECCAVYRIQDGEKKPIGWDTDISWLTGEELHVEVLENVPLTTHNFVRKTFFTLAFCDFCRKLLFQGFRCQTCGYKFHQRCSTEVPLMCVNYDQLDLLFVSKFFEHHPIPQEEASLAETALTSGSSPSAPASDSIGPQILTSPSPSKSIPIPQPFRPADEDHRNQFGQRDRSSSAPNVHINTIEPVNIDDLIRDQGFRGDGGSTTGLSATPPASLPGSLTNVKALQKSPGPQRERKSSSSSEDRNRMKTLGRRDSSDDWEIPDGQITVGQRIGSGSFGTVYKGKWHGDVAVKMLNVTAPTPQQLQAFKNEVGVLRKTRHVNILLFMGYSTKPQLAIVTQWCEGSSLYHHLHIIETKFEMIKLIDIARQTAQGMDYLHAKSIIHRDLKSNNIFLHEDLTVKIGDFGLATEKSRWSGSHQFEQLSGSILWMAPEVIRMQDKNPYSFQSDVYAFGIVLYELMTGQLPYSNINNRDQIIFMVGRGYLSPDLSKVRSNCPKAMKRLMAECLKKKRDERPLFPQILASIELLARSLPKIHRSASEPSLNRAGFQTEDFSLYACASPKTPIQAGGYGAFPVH

Row | Compound | IC50
1 | CCS(=O)(=O)Nc1cc(F)cc(-c2nc(C3CC3)[nH]c2-c2ccnc(NC[C@H](C)NC(=O)OC)n2)c1Cl [Example 1AD, (S)-Methyl 1-(4-(4-(2-chloro-3-(ethylsulfonamido)-5-fluorophenyl)-2-cyclopropyl-1H-imidazol-5-yl)pyrimidin-2-ylamino)propan-2-ylcarbamate] | 0.43 nM
2 | CCS(=O)(=O)Nc1cc(Cl)cc(-c2nc(C(C)(C)C)[nH]c2-c2ccnc(NC[C@H](C)NC(=O)OC)n2)c1F [Example 1AJ, (S)-Methyl 1-(4-(2-tert-butyl-4-(5-chloro-3-(ethylsulfonamido)-2-fluorophenyl)-1H-imidazol-5-yl)pyrimidin-2-ylamino)propan-2-ylcarbamate] | 0.46 nM
3 | CCCNc1nccc(-c2[nH]c(C3CC3)nc2-c2cc(F)cc(NS(=O)(=O)CCC)c2Cl)n1 [Example 1AN, N-(2-Chloro-3-(2-cyclopropyl-5-(2-(propylamino)pyrimidin-4-yl)-1H-imidazol-4-yl)-5-fluorophenyl)propane-1-sulfonamide] | 0.39 nM
4 | COC(=O)N[C@@H](C)CNc1nccc(-c2nc(C3(C)CC3)[nH]c2-c2cccc(NS(C)(=O)=O)c2Cl)n1 [Example 1AO, (S)-Methyl 1-(4-(5-(2-chloro-3-(methylsulfonamido)phenyl)-2-(1-methylcyclopropyl)-1H-imidazol-4-yl)pyrimidin-2-ylamino)propan-2-ylcarbamate] | 1 nM
5 | CCNc1nccc(-c2[nH]c(C3CC3)nc2-c2cc(F)cc(NS(C)(=O)=O)c2Cl)n1 [Example 1AQ, N-(2-Chloro-3-(2-cyclopropyl-5-(2-(ethylamino)pyrimidin-4-yl)-1H-imidazol-4-yl)-5-fluorophenyl)methanesulfonamide] | 11 nM
6 | CCCS(=O)(=O)Nc1cc(F)cc(-c2nc(C3CC3)[nH]c2-c2ccnc(NCC)n2)c1Cl [Example 1AS, N-(2-Chloro-3-(2-cyclopropyl-5-(2-(ethylamino)pyrimidin-4-yl)-1H-imidazol-4-yl)-5-fluorophenyl)propane-1-sulfonamide] | 1 nM
7 | CC(C)Nc1nccc(-c2[nH]c(C3CC3)nc2-c2cc(F)cc(NS(C)(=O)=O)c2Cl)n1 [Example 1AT, N-(2-Chloro-3-(2-cyclopropyl-5-(2-(isopropylamino)pyrimidin-4-yl)-1H-imidazol-4-yl)-5-fluorophenyl)methanesulfonamide] | 25 nM
8 | CCCS(=O)(=O)Nc1cc(F)cc(-c2nc(C3CC3)[nH]c2-c2ccnc(NC(C)C)n2)c1Cl [Example 1AU, N-(2-Chloro-3-(2-cyclopropyl-5-(2-(isopropylamino)pyrimidin-4-yl)-1H-imidazol-4-yl)-5-fluorophenyl)propane-1-sulfonamide] | 5 nM
9 | COC(=O)N[C@H](C)CNc1nccc(-c2[nH]c(C3CC3)nc2-c2cc(F)cc(NS(C)(=O)=O)c2Cl)n1 [Example 1AV, (R)-Methyl 1-(4-(4-(2-chloro-5-fluoro-3-(methylsulfonamido)phenyl)-2-cyclopropyl-1H-imidazol-5-yl)pyrimidin-2-ylamino)propan-2-ylcarbamate] | 11 nM
10 | COC(=O)N[C@@H](C)CNc1nccc(-c2nc(C3CC3)[nH]c2-c2cc(Cl)cc(NS(=O)(=O)c3ccc(F)cc3)c2F)n1 [Example 1AW] | 1 nM
11 | COC(=O)N[C@@H](C)CNc1nccc(-c2nc(C3CC3)[nH]c2-c2cc(Cl)cc(NS(=O)(=O)c3cccc(F)c3)c2F)n1 [Example 1AX, (S)-Methyl 1-(4-(5-(5-chloro-2-fluoro-3-(3-fluorophenylsulfonamido)phenyl)-2-cyclopropyl-1H-imidazol-4-yl)pyrimidin-2-ylamino)propan-2-ylcarbamate] | 0.33 nM

Continued by falling IC50, values first:

Row | IC50 | Compound
12 | 11 nM | CC(C#N)CNc1nccc(-c2[nH]c(C3CC3)nc2-c2cccc(NS(C)(=O)=O)c2Cl)n1 (centres unmarked) [Example 1AK, N-(2-Chloro-3-(5-(2-(2-cyanopropylamino)pyrimidin-4-yl)-2-cyclopropyl-1H-imidazol-4-yl)phenyl)methanesulfonamide]
13 | 5 nM | CCCNc1nccc(-c2[nH]c(C3CC3)nc2-c2cc(F)cc(NS(C)(=O)=O)c2Cl)n1 [Example 1AP, N-(2-Chloro-3-(2-cyclopropyl-5-(2-(propylamino)pyrimidin-4-yl)-1H-imidazol-4-yl)-5-fluorophenyl)methanesulfonamide]
14 | 5 nM | CC(C)CNc1nccc(-c2[nH]c(C3CC3)nc2-c2cc(F)cc(NS(C)(=O)=O)c2Cl)n1 [Example 1AR, N-(2-Chloro-3-(2-cyclopropyl-5-(2-(isobutylamino)pyrimidin-4-yl)-1H-imidazol-4-yl)-5-fluorophenyl)methanesulfonamide]
15 | 1.1 nM | COC(=O)N[C@@H](C)CNc1nccc(-c2[nH]c(C3CC3)nc2-c2cc(C)cc(NS(C)(=O)=O)c2Cl)n1 [Example 1AB, (S)-Methyl 1-(4-(4-(2-chloro-5-methyl-3-(methylsulfonamido)phenyl)-2-cyclopropyl-1H-imidazol-5-yl)pyrimidin-2-ylamino)propan-2-ylcarbamate]
16 | 1 nM | COC(=O)N[C@@H](C)CNc1nccc(-c2[nH]c(C(C)(C)C)nc2-c2cc(F)cc(NS(C)(=O)=O)c2Cl)n1 [Example 1AG, (S)-Methyl 1-(4-(2-tert-butyl-4-(2-chloro-5-fluoro-3-(methylsulfonamido)phenyl)-1H-imidazol-5-yl)pyrimidin-2-ylamino)propan-2-ylcarbamate]
17 | 1 nM | CCCS(=O)(=O)Nc1cc(F)cc(-c2nc(C(C)(C)C)[nH]c2-c2ccnc(NC[C@H](C)NC(=O)OC)n2)c1Cl [Example 1AH]
18 | 1 nM | COC(=O)N[C@@H](C)CNc1nccc(-c2nc(C3(C)CC3)[nH]c2-c2cc(Cl)cc(NS(C)(=O)=O)c2F)n1 [Example 1AL]
19 | 1 nM | COC(=O)N[C@@H](C)CNc1nccc(-c2nc(C3(C)CC3)[nH]c2-c2cc(C)cc(NS(C)(=O)=O)c2F)n1 [Example 1AM, (S)-Methyl 1-(4-(5-(2-fluoro-5-methyl-3-(methylsulfonamido)phenyl)-2-(1-methylcyclopropyl)-1H-imidazol-4-yl)pyrimidin-2-ylamino)propan-2-ylcarbamate]
20 | 0.6 nM | COC(=O)N[C@@H](C)CNc1nccc(-c2nc(C3CC3)[nH]c2-c2cc(Cl)cc(NS(=O)(=O)CCC(F)(F)F)c2F)n1 [Example 1AA, (S)-Methyl 1-(4-(5-(5-chloro-2-fluoro-3-(3,3,3-trifluoropropylsulfonamido)phenyl)-2-cyclopropyl-1H-imidazol-4-yl)pyrimidin-2-ylamino)propan-2-ylcarbamate]
21 | 0.45 nM | CCCS(=O)(=O)Nc1ccc(F)c(-c2nc(C3CC3)[nH]c2-c2ccnc(NC[C@H](C)NC(=O)OC)n2)c1Cl [Example 1AF, Methyl (2S)-1-(4-(4-(2-chloro-6-fluoro-3-(propylsulfonamido)phenyl)-2-cyclopropyl-1H-imidazol-5-yl)pyrimidin-2-ylamino)propan-2-ylcarbamate]
22 | 0.3 nM | COC(=O)N[C@@H](C)CNc1nccc(-c2[nH]c(C3CC3)nc2-c2cc(F)cc(NS(=O)(=O)C3CC3)c2Cl)n1 [Example 1AE, (S)-Methyl 1-(4-(4-(2-chloro-3-(cyclopropanesulfonamido)-5-fluorophenyl)-2-cyclopropyl-1H-imidazol-5-yl)pyrimidin-2-ylamino)propan-2-ylcarbamate]
23 | 0.28 nM | COC(=O)N[C@@H](C)CNc1nccc(-c2[nH]c(C(C)(C)C)nc2-c2cc(Cl)cc(NS(C)(=O)=O)c2F)n1 [Example 1AI, (S)-Methyl 1-(4-(2-tert-butyl-4-(5-chloro-2-fluoro-3-(methylsulfonamido)phenyl)-1H-imidazol-5-yl)pyrimidin-2-ylamino)propan-2-ylcarbamate]
24 | 0.26 nM | COC(=O)N[C@@H](C)CNc1nccc(-c2nc(C3CC3)[nH]c2-c2cc(Cl)cc(NS(=O)(=O)CC3CC3)c2F)n1 [Example 1AC, (S)-Methyl 1-(4-(5-(5-chloro-3-(cyclopropylmethylsulfonamido)-2-fluorophenyl)-2-cyclopropyl-1H-imidazol-4-yl)pyrimidin-2-ylamino)propan-2-ylcarbamate]
25 | 0.23 nM | CC1(c2nc(-c3cc(F)cc(NS(C)(=O)=O)c3Cl)c(-c3ccnc(NCCC#N)n3)[nH]2)CC1 [Example 1AY, N-(2-Chloro-3-(5-(2-(2-cyanoethylamino)pyrimidin-4-yl)-2-(1-methylcyclopropyl)-1H-imidazol-4-yl)-5-fluorophenyl)methanesulfonamide]
26 | 0.2 nM | COC(=O)N[C@@H](C)CNc1nccc(-c2[nH]c(C3CC3)nc2-c2cc(Cl)cc(NS(C)(=O)=O)c2F)n1 [Example 1A, (S)-methyl 1-(4-(4-(5-chloro-2-fluoro-3-(methylsulfonamido)phenyl)-2-cyclopropyl-1H-imidazol-5-yl)pyrimidin-2-ylamino)propan-2-ylcarbamate]
